Experimental data reported in patent US12501899B2, “Mite infestation treatment” (priority 2019, dated 2025).
Where a name gives a salt, the structure may show the parent alone. Read-outs that look alike come from different tables or passages of the source.

Assays:
Type in all cases: in vivo
Ixodes ricinus = assay: Oral acaricidal test on ticks in membrane feeding wells with treated blood; details: for mortality at 1 ppm / mortality at 10 ppm / mortality at 100 ppm: Ixodes ricinus, po
Procedure: A laboratory study was conducted to determine the oral acaricidal properties of three compounds according to the invention (SN0305, SN0306 and SN0307) against Ixodes ricinus. Each compound was tested at 1, 10 and 100 ppm, and compared to a negative control corresponding to solvent alone (0.1% DMSO). Amitraz at 100 ppm was used as a positive control.
The Ixodes ricinus ticks (nymphs and adults) were placed for 24 hours on a membrane in feeding wells containing blood mixed with the tested compounds. Tick mortality (number of dead, moribund, or unaffected ticks in each well), attachment to the membrane (number of ticks attached/detached in each well), and the behavior (presence or absence of twitches) were examined 1, 3, 6, 12, 24, 48, 72, and 96 hours after the onset of tick exposure to the compounds.
Ticks (Ixodes ricinus) were collected. Collected adult females were kept separate from the nymphs and both were placed in sterile tubes in a humidity chamber to provide ˜80% humidity and 17° C. Only healthy ticks (females/nymphs) were chosen for the experiment.
Batches of 12 adults or nymphs were inserted into the feeding wells. After about 24 hours, their attachment was examined with a brush.
The efficiency of three compounds (SN0305, SN0306 and SN0307), each tested at three concentrations (1, 10, 100 ppm), was compared to the solvent control (0.1% DMSO, Sigma-Aldrich D-5879; Lot 101K0028) and to the positive control (Amitraze at 100 ppm).
Silicone-coated membranes with a thickness comprised between 110 and 140 μm were used for the construction of the feeding units.
Feeding units (sterilized acrylic glass tubes) were placed in feeding wells made of sterilized six-well plates.
3.1 ml of sterile 10^−3 M ATP-enriched blood was applied to each feeding well. Feeding wells were then inserted into a heated water bath (FIG. 12) and maintained at 37° C.±2° C.
Stock solutions of 100,000 ppm were prepared and tenth dilutions were carried out in 0.1% DMSO to reach the desired concentrations. After tick attachment (24 hours after placing the ticks in the feeding wells), 3.1 μl of the solutions were added to each feeding well containing 3.1 ml of blood. Blood was changed after 12 hours with fresh supplementation of the compounds to be tested. The ticks were exposed to the product for a total of 24 hours, after which the blood was again changed to fresh, untreated blood.
Tick mortality (number of dead, moribund or unaffected ticks in each well), attachment (number of attached/detached ticks in each well) and behavior (presence, absence and intensity of convulsions) were examined 1, 3, 6, 12, 24, 48, 72, and 96 hours after the start of tick exposure to the compound.

bees = assay: Mortality of adult bees in treated beehives (dead bee traps); details: 220 mg/hive
Procedure: (§1) 18 hives of bees were divided into 6 groups of 3 homogeneous hives as regards the strength of the colonies (number of bees) and the Varroa infestation.
(§2) The tested compounds were applied in the form of a gel three weeks after the queen was caged. The activity of the compounds was studied for a period of 9 days.
For this purpose, dead bee traps disposed in front of the hives were used.
(§3) The following compounds were tested: • Dexmedetomidine at 55 mg/hive in hydrochloride form, • Dexmedetomidine at 110 mg/hive in hydrochloride form, • Dexmedetomidine at 220 mg/hive in hydrochloride form, • Detomidine at 38.4 mg/hive in hydrochloride form, • Detomidine at 110 mg/hive in hydrochloride form, • Detomidine at 220 mg/hive in hydrochloride form, Results

Varroa destructor = assay: Efficiency against Varroa mites in beehives outside the brood (gel application); details: 220 mg/hive, gel, 9 days
Excerpt: as §1
The queen of each hive was caged 3 weeks before the application of the tested compounds. The application of the tested compounds was therefore carried out in a situation outside the brood, which allows the forced passage of the Varroa mites from their reproduction phase to their phoresy phase (they are therefore all present on the bees).
as §2
Following these 9 days of treatment, a control treatment with oxalic acid was carried out (duration of treatment equal to 1 week).
Counts of Varroa mites falling on the floor were carried out at regular time intervals to quantify the number of dead Varroa mites.
The efficiency of the treatment was calculated by taking the sum of all the dead Varroa mites from D0 to D9 (tested compounds) and dividing it by the sum of all the dead Varroa mites from D0 to D16 (tested compounds+control treatment).
as §3

[1] = adult ticks, 1 h, read-out: average percentage of adult tick mortality (moribund or dead adult ticks)
[2] = adult ticks, 3 h, read-out: average percentage of adult tick mortality (moribund or dead adult ticks)
[3] = adult ticks, 6 h, read-out: average percentage of adult tick mortality (moribund or dead adult ticks)
[4] = adult ticks, 12 h, read-out: average percentage of adult tick mortality (moribund or dead adult ticks)
[5] = adult ticks, 24 h, read-out: average percentage of adult tick mortality (moribund or dead adult ticks)
[6] = adult ticks, 48 h, read-out: average percentage of adult tick mortality (moribund or dead adult ticks)
[7] = adult ticks, 72 h, read-out: average percentage of adult tick mortality (moribund or dead adult ticks)
[8] = adult ticks, 96 h, read-out: average percentage of adult tick mortality (moribund or dead adult ticks)
[9] = nymphs, 1 h, read-out: average percentage of mortality of tick nymphs (moribund or dead nymphs)
[10] = nymphs, 3 h, read-out: average percentage of mortality of tick nymphs (moribund or dead nymphs)
[11] = nymphs, 6 h, read-out: average percentage of mortality of tick nymphs (moribund or dead nymphs)
[12] = nymphs, 12 h, read-out: average percentage of mortality of tick nymphs (moribund or dead nymphs)
[13] = nymphs, 24 h, read-out: average percentage of mortality of tick nymphs (moribund or dead nymphs)
[14] = nymphs, 48 h, read-out: average percentage of mortality of tick nymphs (moribund or dead nymphs)
[15] = nymphs, 72 h, read-out: average percentage of mortality of tick nymphs (moribund or dead nymphs)
[16] = nymphs, 96 h, read-out: average percentage of mortality of tick nymphs (moribund or dead nymphs)

In the case of `Cc1cccc(Cc2cnc[nH]2)c1C` [Detomidine hydrochloride, 4-[(2,3-dimethylphenyl)-methyl]-3H-imidazole], the “effect in terms of tick detachment (in words)” value (Ixodes ricinus; 1, 10, 100 ppm, nymphs and adults) is reported as “very limited effect”, the “detached adults in a replica” value (Ixodes ricinus; 1 ppm, adult ticks) is reported as 2 and the mortality at 1 ppm (Ixodes ricinus; adult ticks, 1 ppm, 1 h, read-out: average percentage of adult tick mortality (moribund or dead adult ticks)) is reported as 0%. For the same compound, the mortality at 1 ppm (Ixodes ricinus; adult ticks, 1 ppm, 3 h, read-out: average percentage of adult tick mortality (moribund or dead adult ticks)) was 0%, the mortality at 1 ppm (Ixodes ricinus; adult ticks, 1 ppm, 6 h, read-out: average percentage of adult tick mortality (moribund or dead adult ticks)) was 2.8% and the mortality at 1 ppm (Ixodes ricinus; adult ticks, 1 ppm, 12 h, read-out: average percentage of adult tick mortality (moribund or dead adult ticks)) was 2.8%. The mortality at 1 ppm (Ixodes ricinus; adult ticks, 1 ppm, 24 h, read-out: average percentage of adult tick mortality (moribund or dead adult ticks)) was 62.9%, the mortality at 1 ppm (Ixodes ricinus; adult ticks, 1 ppm, 48 h, read-out: average percentage of adult tick mortality (moribund or dead adult ticks)) was 88.2% and the mortality at 1 ppm (Ixodes ricinus; adult ticks, 1 ppm, 72 h, read-out: average percentage of adult tick mortality (moribund or dead adult ticks)) was 100%. The mortality at 1 ppm (Ixodes ricinus; adult ticks, 1 ppm, 96 h, read-out: average percentage of adult tick mortality (moribund or dead adult ticks)) was 100%, the mortality at 10 ppm (Ixodes ricinus; [1]) was 0% and the mortality at 10 ppm (Ixodes ricinus; [2]) was 0%. It also gave a mortality at 10 ppm (Ixodes ricinus; [3]) of 8.3%, a mortality at 10 ppm (Ixodes ricinus; [4]) of 8.3% and a mortality at 10 ppm (Ixodes ricinus; [5]) of 52.1%. The mortality at 10 ppm (Ixodes ricinus; [6]) was 96.4%, the mortality at 10 ppm (Ixodes ricinus; [7]) was 100% and the mortality at 10 ppm (Ixodes ricinus; [8]) was 100%. It also gave a mortality at 100 ppm (Ixodes ricinus; [1]) of 0%, a mortality at 100 ppm (Ixodes ricinus; [2]) of 0% and a mortality at 100 ppm (Ixodes ricinus; [3]) of 8.8%. It also gave a mortality at 100 ppm (Ixodes ricinus; [4]) of 15.4%, a mortality at 100 ppm (Ixodes ricinus; [5]) of 24% and a mortality at 100 ppm (Ixodes ricinus; [6]) of 57.4%. It also gave a mortality at 100 ppm (Ixodes ricinus; [7]) of 100%, a mortality at 100 ppm (Ixodes ricinus; [8]) of 100% and a mortality at 1 ppm (Ixodes ricinus; nymphs, 1 ppm, 1 h, read-out: average percentage of mortality of tick nymphs (moribund or dead nymphs)) of 0%. For the same compound, the mortality at 1 ppm (Ixodes ricinus; nymphs, 1 ppm, 3 h, read-out: average percentage of mortality of tick nymphs (moribund or dead nymphs)) was 0%, the mortality at 1 ppm (Ixodes ricinus; nymphs, 1 ppm, 6 h, read-out: average percentage of mortality of tick nymphs (moribund or dead nymphs)) was 14.1% and the mortality at 1 ppm (Ixodes ricinus; nymphs, 1 ppm, 12 h, read-out: average percentage of mortality of tick nymphs (moribund or dead nymphs)) was 35.4%. For the same compound, the mortality at 1 ppm (Ixodes ricinus; nymphs, 1 ppm, 24 h, read-out: average percentage of mortality of tick nymphs (moribund or dead nymphs)) was 56.4%, the mortality at 1 ppm (Ixodes ricinus; nymphs, 1 ppm, 48 h, read-out: average percentage of mortality of tick nymphs (moribund or dead nymphs)) was 97.2% and the mortality at 1 ppm (Ixodes ricinus; nymphs, 1 ppm, 72 h, read-out: average percentage of mortality of tick nymphs (moribund or dead nymphs)) was 100%. It also gave a mortality at 1 ppm (Ixodes ricinus; nymphs, 1 ppm, 96 h, read-out: average percentage of mortality of tick nymphs (moribund or dead nymphs)) of 100%, a mortality at 10 ppm (Ixodes ricinus; [9]) of 0% and a mortality at 10 ppm (Ixodes ricinus; [10]) of 12.7%. For the same compound, the mortality at 10 ppm (Ixodes ricinus; [11]) was 35.5%, the mortality at 10 ppm (Ixodes ricinus; [12]) was 54.7% and the mortality at 10 ppm (Ixodes ricinus; [13]) was 88.1%. For the same compound, the mortality at 10 ppm (Ixodes ricinus; [14]) was 100%, the mortality at 10 ppm (Ixodes ricinus; [15]) was 100% and the mortality at 10 ppm (Ixodes ricinus; [16]) was 100%. The mortality at 100 ppm (Ixodes ricinus; [9]) was 0%, the mortality at 100 ppm (Ixodes ricinus; [10]) was 9.4% and the mortality at 100 ppm (Ixodes ricinus; [11]) was 45.3%. The mortality at 100 ppm (Ixodes ricinus; [12]) was 69.5%, the mortality at 100 ppm (Ixodes ricinus; [13]) was 95.5% and the mortality at 100 ppm (Ixodes ricinus; [14]) was 100%. The mortality at 100 ppm (Ixodes ricinus; [15]) was 100%, the mortality at 100 ppm (Ixodes ricinus; [16]) was 100% and the “ticks affected (convulsion, morbidity or death of ticks)” value (Ixodes ricinus; from 1 hour of exposure, regardless of the concentration tested (1, 10, 100 ppm)) was 100%. The “mortality of the bees in the hive (in words)” value (bees) was “increase in the mortality of the bees” and the “Varroacid effect in the hive (in words)” value (Varroa destructor) was “allows to have a Varroacid effect”.
